According to the NIST ThermoML archive (doi:10.1007/s10765-006-0045-2):
Values joined by “and” are separate entries in the source; they are usually repeats but may differ in a detail not shown here. Equal values may be shown once.

Assays:
[1] = 101.33 kPa, Crystal; for thermal diffusivity: laser flash method
[2] = molar heat capacity at constant pressure; details: 101.33 kPa, Resistive pulse heating

[Hf] [hafnium]
[1]
Details | thermal diffusivity
285 K | 1.36e-05 m2/s
293 K | 1.38e-05 m2/s
321 K | 1.32e-05 m2/s
326 K | 1.31e-05 m2/s
375 K | 1.24e-05 m2/s
386 K | 1.22e-05 m2/s
423 K | 1.19e-05 m2/s
433 K | 1.17e-05 m2/s
459 K | 1.15e-05 m2/s
492 K | 1.12e-05 m2/s
521 K | 1.08e-05 m2/s
530 K | 1.08e-05 m2/s
568 K | 1.05e-05 m2/s
579 K | 1.06e-05 m2/s
615 K | 1.02e-05 m2/s
618 K | 1.04e-05 m2/s
664 K | 1e-05 m2/s and 1.02e-05 m2/s
714 K | 9.91e-06 m2/s
715 K | 9.92e-06 m2/s
760 K | 9.79e-06 m2/s
767 K | 9.72e-06 m2/s
817 K | 9.57e-06 m2/s
825 K | 9.67e-06 m2/s
862 K | 9.46e-06 m2/s
874 K | 9.59e-06 m2/s
914 K | 9.36e-06 m2/s
919 K | 9.54e-06 m2/s
962 K | 9.32e-06 m2/s
965 K | 9.54e-06 m2/s
1012 K | 9.29e-06 m2/s
1017 K | 9.54e-06 m2/s
1065 K | 9.26e-06 m2/s and 9.53e-06 m2/s
1113 K | 9.27e-06 m2/s
1118 K | 9.59e-06 m2/s
1162 K | 9.4e-06 m2/s
1174 K | 9.6e-06 m2/s
1215 K | 9.45e-06 m2/s
1222 K | 9.65e-06 m2/s
1262 K | 9.43e-06 m2/s
1277 K | 9.81e-06 m2/s
1314 K | 9.5e-06 m2/s
1332 K | 9.85e-06 m2/s
1362 K | 9.7e-06 m2/s
1370 K | 1e-05 m2/s
1417 K | 9.96e-06 m2/s
1430 K | 1.02e-05 m2/s
1463 K | 1e-05 m2/s
1472 K | 1.05e-05 m2/s

Details | mass density | molar heat capacity at constant pressure
[1], 298.1 K, mass over volume | 13222 kg/m3 [middle of 5 runs] | –
[2], 294 K, Crystal 2 | – | 25.61 J/K/mol and 25.77 J/K/mol
[2], 321 K, Crystal 2 | – | 25.86 J/K/mol and 26.01 J/K/mol
[2], 372 K, Crystal 2 | – | 26.33 J/K/mol and 26.38 J/K/mol
[2], 421 K, Crystal 2 | – | 26.77 J/K/mol and 26.7 J/K/mol
[2], 471 K, Crystal 2 | – | 27.22 J/K/mol and 27.1 J/K/mol
[2], 522 K, Crystal 2 | – | 27.67 J/K/mol and 27.49 J/K/mol
[2], 571 K, Crystal 2 | – | 28.09 J/K/mol and 27.88 J/K/mol
[2], 622 K, Crystal 2 | – | 28.52 J/K/mol and 28.29 J/K/mol
[2], 671 K, Crystal 2 | – | 28.93 J/K/mol and 28.67 J/K/mol
[2], 721 K, Crystal 2 | – | 29.36 J/K/mol and 29.04 J/K/mol
[2], 771 K, Crystal 2 | – | 29.77 J/K/mol and 29.47 J/K/mol
[2], 821 K, Crystal 2 | – | 30.17 J/K/mol and 29.95 J/K/mol
[2], 871 K, Crystal 2 | – | 30.56 J/K/mol and 30.4 J/K/mol
[2], 921 K, Crystal 2 | – | 30.95 J/K/mol and 30.84 J/K/mol
[2], 971 K, Crystal 2 | – | 31.34 J/K/mol and 31.25 J/K/mol
[2], 1021 K, Crystal 2 | – | 31.72 J/K/mol and 31.7 J/K/mol
[2], 1071 K, Crystal 2 | – | 32.08 J/K/mol and 32.11 J/K/mol
[2], 1121 K, Crystal 2 | – | 32.45 J/K/mol and 32.49 J/K/mol
[2], 1171 K, Crystal 2 | – | 32.84 J/K/mol and 32.93 J/K/mol
[2], 1221 K, Crystal 2 | – | 33.2 J/K/mol and 33.34 J/K/mol
[2], 1271 K, Crystal 2 | – | 33.54 J/K/mol and 33.73 J/K/mol
[2], 1321 K, Crystal 2 | – | 33.88 J/K/mol and 34.13 J/K/mol
[2], 1371 K, Crystal 2 | – | 34.2 J/K/mol and 34.52 J/K/mol
[2], 1421 K, Crystal 2 | – | 34.52 J/K/mol and 34.91 J/K/mol
[2], 1471 K, Crystal 2 | – | 34.84 J/K/mol and 35.25 J/K/mol
[2], 1521 K, Crystal 2 | – | 35.15 J/K/mol and 35.68 J/K/mol
[2], 1571 K, Crystal 2 | – | 35.45 J/K/mol and 36.06 J/K/mol
[2], 1621 K, Crystal 2 | – | 35.73 J/K/mol and 36.38 J/K/mol
[2], 1671 K, Crystal 2 | – | 36.02 J/K/mol and 36.7 J/K/mol
[2], 1721 K, Crystal 2 | – | 36.31 J/K/mol and 37.13 J/K/mol
[2], 1771 K, Crystal 2 | – | 36.57 J/K/mol and 37.48 J/K/mol
[2], 1821 K, Crystal 2 | – | 36.84 J/K/mol and 37.88 J/K/mol
[2], 1871 K, Crystal 2 | – | 37.09 J/K/mol and 38.29 J/K/mol
[2], 1921 K, Crystal 2 | – | 37.34 J/K/mol and 38.64 J/K/mol
[2], 1971 K, Crystal 2 | – | 37.59 J/K/mol and 40.2 J/K/mol
[2], 1983 K, Crystal 2 | – | 39.18 J/K/mol
[2], 2121 K, Crystal 1 | – | 34.13 J/K/mol and 34.29 J/K/mol
[2], 2171 K, Crystal 1 | – | 34.18 J/K/mol and 34.29 J/K/mol
[2], 2222 K, Crystal 1 | – | 34.23 J/K/mol and 34.29 J/K/mol
[2], 2272 K, Crystal 1 | – | 34.29 J/K/mol
[2], 2321 K, Crystal 1 | – | 34.41 J/K/mol
[2], 2336 K, Crystal 1 | – | 34.5 J/K/mol
